Columns and labels:
Cavia porcellus [1] = test: Ex vivo platelet aggregation of compound was measured in guinea pig up to 5 hr after intraduodenal dose of 1 mg/kg; assay type: functional
Cavia porcellus [2] = test: Ex vivo platelet aggregation of compound was measured in guinea pig up to 5 hr after intraduodenal dose of 3 mg/kg; assay type: functional
Homo sapiens = species on record: Homo sapiens; test: Tested in vitro for the inhibition of ADP-induced aggregation of human blood platelets; assay type: functional
[3] = target: T1, Integrin alpha-IIb/beta-3 (Homo sapiens, UniProt P05106+P08514); test: Inhibition of fibrinogen binding to immobilized human glycoprotein alpha IIb beta-3 integrin; assay type: protein-complex assay
T1 sequence (P05106 27-788 limits assumed): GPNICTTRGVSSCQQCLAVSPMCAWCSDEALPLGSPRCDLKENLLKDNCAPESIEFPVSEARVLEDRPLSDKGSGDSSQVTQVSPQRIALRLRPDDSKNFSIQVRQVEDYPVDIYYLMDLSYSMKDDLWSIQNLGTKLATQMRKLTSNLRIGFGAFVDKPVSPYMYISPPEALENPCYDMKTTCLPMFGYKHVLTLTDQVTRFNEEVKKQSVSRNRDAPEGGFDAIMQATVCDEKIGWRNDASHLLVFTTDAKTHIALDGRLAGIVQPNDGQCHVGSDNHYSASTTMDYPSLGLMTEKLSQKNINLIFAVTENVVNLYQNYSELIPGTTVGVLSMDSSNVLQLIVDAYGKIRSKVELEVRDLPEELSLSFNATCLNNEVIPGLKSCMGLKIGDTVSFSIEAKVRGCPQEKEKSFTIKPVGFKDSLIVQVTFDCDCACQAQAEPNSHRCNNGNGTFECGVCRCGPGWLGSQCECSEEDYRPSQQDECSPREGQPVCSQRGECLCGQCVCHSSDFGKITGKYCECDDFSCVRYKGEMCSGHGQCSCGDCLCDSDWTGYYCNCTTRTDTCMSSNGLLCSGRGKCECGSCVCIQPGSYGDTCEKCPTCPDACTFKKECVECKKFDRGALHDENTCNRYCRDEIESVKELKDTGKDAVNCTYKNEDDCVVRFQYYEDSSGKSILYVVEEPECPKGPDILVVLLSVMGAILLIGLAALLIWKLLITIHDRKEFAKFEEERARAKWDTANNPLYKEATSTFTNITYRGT
T1 sequence (P08514 32-887 limits assumed): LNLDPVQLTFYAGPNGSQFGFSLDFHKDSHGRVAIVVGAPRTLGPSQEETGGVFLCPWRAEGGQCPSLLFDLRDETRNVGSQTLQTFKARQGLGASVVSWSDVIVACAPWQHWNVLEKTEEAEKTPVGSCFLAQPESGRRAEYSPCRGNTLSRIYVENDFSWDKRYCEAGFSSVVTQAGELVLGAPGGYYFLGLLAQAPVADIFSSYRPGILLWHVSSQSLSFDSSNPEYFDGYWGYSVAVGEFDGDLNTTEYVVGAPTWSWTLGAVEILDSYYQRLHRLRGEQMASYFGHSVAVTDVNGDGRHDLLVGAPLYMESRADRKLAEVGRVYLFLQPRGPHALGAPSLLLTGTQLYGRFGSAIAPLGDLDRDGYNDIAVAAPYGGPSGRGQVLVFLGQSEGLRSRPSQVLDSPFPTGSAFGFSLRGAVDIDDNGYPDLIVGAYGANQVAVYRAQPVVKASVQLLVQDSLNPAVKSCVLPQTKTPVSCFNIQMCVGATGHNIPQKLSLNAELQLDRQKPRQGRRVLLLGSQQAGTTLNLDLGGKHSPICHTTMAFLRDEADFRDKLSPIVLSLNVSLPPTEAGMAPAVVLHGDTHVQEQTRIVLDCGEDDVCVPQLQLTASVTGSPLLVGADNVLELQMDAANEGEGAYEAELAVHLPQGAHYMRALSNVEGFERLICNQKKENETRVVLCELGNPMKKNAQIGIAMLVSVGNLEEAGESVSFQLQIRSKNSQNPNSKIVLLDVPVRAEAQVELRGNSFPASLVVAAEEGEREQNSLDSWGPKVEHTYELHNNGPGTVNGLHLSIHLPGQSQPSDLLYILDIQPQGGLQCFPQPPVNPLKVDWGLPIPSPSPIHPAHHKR
T1 sequence (P08514 891-1039 limits assumed): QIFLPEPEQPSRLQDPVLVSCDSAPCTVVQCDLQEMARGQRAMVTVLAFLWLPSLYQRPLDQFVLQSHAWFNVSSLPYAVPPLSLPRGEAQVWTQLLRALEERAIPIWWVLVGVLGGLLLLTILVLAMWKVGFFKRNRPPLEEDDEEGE

Cavia porcellus [4] = test: Ex vivo platelet aggregation of compound was measured in guinea pig up to 5 hr after intraduodenal dose of 0.3 mg/kg; assay type: functional
Cavia porcellus [5] = test: Ex vivo platelet aggregation of compound was measured in guinea pig up to 5 hr after intraduodenal dose of 10 mg/kg; assay type: functional
[6] = target: T1, Integrin alpha-IIb/beta-3; test: Inhibition of fibrinogen binding to GPllb/IIIa receptor; assay type: protein-complex assay

Compound	IC50 (Homo sapiens)	IC50 [3]	IC50 [6]	inhibition in vivo at 1 mg/kg (Cavia porcellus [1])	inhibition in vivo at 3 mg/kg (Cavia porcellus [2])	inhibition in vivo at 0.3 mg/kg (Cavia porcellus [4])	inhibition in vivo at 10 mg/kg (Cavia porcellus [5])
CC(C)CC(=O)N[C@H](CCCCNC(=O)c1ccc(C(=N)N)cc1)CC(=O)O	15 nM	0.54 nM		65%	75%		
COc1ccc(CCS(=O)(=O)N[C@H](CCCCNC(=O)c2ccc(C(=N)N)cc2)CC(=O)O)cc1	79 nM	1 nM					
COc1ccc(CCC(=O)N[C@H](CCCCNC(=O)c2ccc(C(=N)N)cc2)CC(=O)O)cc1	18 nM	0.36 nM		90%		45%	
Cc1ccc(S(=O)(=O)N[C@@H](CCCNC(=O)Cc2ccc(C(=N)N)cc2)CC(=O)O)cc1	640 nM						10%
Cc1ccc(S(=O)(=O)N[C@@H](CCCNC(=O)Cc2ccc(C(=N)N)cc2)C(=O)O)cc1	31000 nM	48000 nM					
N=C(N)c1ccc(C(=O)NCCCC[C@H](CC(=O)O)NC(=O)Cc2cccc3ccccc23)cc1	18 nM	0.36 nM		40%			
Cc1ccc(S(=O)(=O)N[C@@H](CCCNC(=O)OCc2ccccc2)C(=O)O)cc1 [ORNITHINE SULFONAMIDE]			20000 nM				

More lines, main results first:

IC50 (Homo sapiens)	IC50 [3]	IC50 [6]	Compound	inhibition in vivo at 1 mg/kg (Cavia porcellus [1])	inhibition in vivo at 3 mg/kg (Cavia porcellus [2])	inhibition in vivo at 0.3 mg/kg (Cavia porcellus [4])	inhibition in vivo at 10 mg/kg (Cavia porcellus [5])
950 nM	7.9 nM		CC(C)CNC(=O)[C@@H](CCCNC(=O)Cc1ccc(C(=N)N)cc1)CC(=O)O				
100 nM			CC(C)CC(=O)N[C@@H](CCCNC(=O)Cc1ccc(C(=N)N)cc1)CC(=O)O	25%	75%		
61 nM	0.37 nM		N=C(N)c1ccc(CC(=O)NCCC[C@@H](CC(=O)O)NC(=O)CCC23C[C@H]4C[C@@H](C2)C[C@@H](C3)C4)cc1		10%		
31 nM	1.1 nM		COc1ccc(CCC(=O)N[C@@H](CCCNC(=O)Cc2ccc(C(=N)N)cc2)CC(=O)O)cc1	10%	10%		
67 nM	2.2 nM		N=C(N)c1ccc(CC(=O)NCCC[C@@H](CC(=O)O)NC(=O)CC23C[C@H]4C[C@@H](C2)C[C@@H](C3)C4)cc1				

From ChEMBL document CHEMBL1129882, “Beta-amino acid derivatives as orally active non-peptide fibrinogen receptor antagonists” (Bioorg Med Chem Lett, 1997)
